Data as given in PubChem BioAssay AID2060907 (Molecular Pharmacology Branch, DTP, NCI, 2025).
Values joined by “and” are separate entries in the source; they are usually repeats but may differ in a detail not shown here. Identical values can stand only once.

Test system: 388556-164-R-J1-PDC complex spheroid viability
Experiment: Anticancer human tumor 388556-164-R-J1-PDC patient-derived colon adenocarcinoma cell line growth inhibition [RAS]
Details: for viability, T/C: stronger effect = lower value
Summary of the method: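 Tumour cells grown as complex spheroids with HUVEC endothelial cells and mesenchymal stem cells, treated with RAS pathway inhibitor combinations. Each agent spans half-log steps from near clinical Cmax, or 10 microM where Cmax is unknown.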

[1] = curve of first compound, second compound 0.0316 µM
[2] = curve of first compound, second compound 0.1 µM
[3] = curve of first compound, second compound 0.316 µM
[4] = curve of first compound, second compound 1 µM
[5] = curve of first compound, second compound 3.16 µM
[6] = curve of first compound, second compound 10 µM
[7] = second compound 0.0316 µM, first compound 0.00316 µM
[8] = second compound 0.0316 µM, first compound 0.01 µM
[9] = second compound 0.0316 µM, first compound 0.0316 µM
[10] = second compound 0.0316 µM, first compound 0.1 µM
[11] = second compound 0.0316 µM, first compound 0.316 µM
[12] = second compound 0.0316 µM, first compound 1 µM
[13] = second compound 0.1 µM, first compound 0.00316 µM
[14] = second compound 0.1 µM, first compound 0.01 µM
[15] = second compound 0.1 µM, first compound 0.0316 µM
[16] = second compound 0.1 µM, first compound 0.1 µM
[17] = second compound 0.1 µM, first compound 0.316 µM
[18] = second compound 0.1 µM, first compound 1 µM
[19] = second compound 0.316 µM, first compound 0.00316 µM
[20] = second compound 0.316 µM, first compound 0.01 µM
[21] = second compound 0.316 µM, first compound 0.0316 µM
[22] = second compound 0.316 µM, first compound 0.1 µM
[23] = second compound 0.316 µM, first compound 0.316 µM
[24] = second compound 0.316 µM, first compound 1 µM
[25] = second compound 1 µM, first compound 0.00316 µM
[26] = second compound 1 µM, first compound 0.01 µM
[27] = second compound 1 µM, first compound 0.0316 µM
[28] = second compound 1 µM, first compound 0.1 µM
[29] = second compound 1 µM, first compound 0.316 µM
[30] = second compound 1 µM, first compound 1 µM
[31] = second compound 3.16 µM, first compound 0.00316 µM
[32] = second compound 3.16 µM, first compound 0.01 µM
[33] = second compound 3.16 µM, first compound 0.0316 µM
[34] = second compound 3.16 µM, first compound 0.1 µM
[35] = second compound 3.16 µM, first compound 0.316 µM
[36] = second compound 3.16 µM, first compound 1 µM
[37] = second compound 10 µM, first compound 0.00316 µM
[38] = second compound 10 µM, first compound 0.01 µM
[39] = second compound 10 µM, first compound 0.0316 µM
[40] = second compound 10 µM, first compound 0.1 µM
[41] = second compound 10 µM, first compound 0.316 µM
[42] = second compound 10 µM, first compound 1 µM
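Note: spheroids exposed to compound for 7 days before readout.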
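Throughout, for viability, T/C: 100% = DMSO vehicle control luminescence.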

## Nc1ccn(C2OC(CO)C(O)C2(F)F)c(=O)n1 (centres undefined) + C#Cc1c(F)ccc2cc(O)cc(-c3ncc4c(N5CC6CCC(C5)N6)nc(OCC56CCCN5CC(F)C6)nc4c3F)c12
[1]
  IC50: > 1000 nM
[2]
  IC50: > 1000 nM
[3]
  IC50: > 1000 nM
[4]
  IC50: > 1000 nM
[5]
  IC50: > 1000 nM
[6]
  IC50: > 1000 nM
[7]
  viability, T/C: 95%
[8]
  viability, T/C: 95.6%
[9]
  viability, T/C: 86%
[10]
  viability, T/C: 79.5%
[11]
  viability, T/C: 76%
[12]
  viability, T/C: 72.6%
[13]
  viability, T/C: 106%
[14]
  viability, T/C: 96.6%
[15]
  viability, T/C: 80.4%
[16]
  viability, T/C: 74.9%
[17]
  viability, T/C: 74.9%
[18]
  viability, T/C: 78.5%
[19]
  viability, T/C: 98.9%
[20]
  viability, T/C: 93.2%
[21]
  viability, T/C: 60.9%
[22]
  viability, T/C: 74.8%
[23]
  viability, T/C: 75.8%
[24]
  viability, T/C: 64.7%
[25]
  viability, T/C: 98.6%
[26]
  viability, T/C: 82.5%
[27]
  viability, T/C: 60.1%
[28]
  viability, T/C: 76.9%
[29]
  viability, T/C: 75.5%
[30]
  viability, T/C: 54.2%
[31]
  viability, T/C: 82.6%
[32]
  viability, T/C: 70.1%
[33]
  viability, T/C: 69.5%
[34]
  viability, T/C: 67.1%
[35]
  viability, T/C: 68%
[36]
  viability, T/C: 54.1%
[37]
  viability, T/C: 76.3%
[38]
  viability, T/C: 67.1%
[39]
  viability, T/C: 52.6%
[40]
  viability, T/C: 54.9%
[41]
  viability, T/C: 48.5%
[42]
  viability, T/C: 49.1%

## C[C@@H](NC(=O)c1ncnc(N)c1Cl)c1ncc(C(=O)Nc2cc(C(F)(F)F)c(Cl)cn2)s1
Compound 0.0316 µM
  viability, T/C: 106% [middle of 4 runs]
Compound 0.1 µM
  viability, T/C: 112% [middle of 4 runs]
Compound 0.316 µM
  viability, T/C: 121% [middle of 4 runs]
Compound 1 µM
  viability, T/C: 118% and 115% (2×) and 132%
Compound 3.16 µM
  viability, T/C: 116% [middle of 4 runs]
Compound 10 µM
  viability, T/C: 97.4% [middle of 4 runs]
Curve of compound
  IC50: > 10000 nM

## Nc1ccn(C2OC(CO)C(O)C2(F)F)c(=O)n1 (centres undefined) + C=CC(=O)N1CCN(c2nc(OCC3CCCN3C)nc3c(F)c(-c4nc(N)cc(C)c4C(F)(F)F)c(Cl)cc23)C(C)C1
Curve of first compound, second compound 0.00316 µM
  IC50: > 1000 nM
Curve of first compound, second compound 0.01 µM
  IC50: > 1000 nM
[1]
  IC50: > 1000 nM
[2]
  IC50: > 1000 nM
[3]
  IC50: > 1000 nM
[4]
  IC50: > 1000 nM
Second compound 0.00316 µM, first compound 0.00316 µM
  viability, T/C: 106%
Second compound 0.00316 µM, first compound 0.01 µM
  viability, T/C: 90.6%
Second compound 0.00316 µM, first compound 0.0316 µM
  viability, T/C: 82.7%
Second compound 0.00316 µM, first compound 0.1 µM
  viability, T/C: 79.4%
Second compound 0.00316 µM, first compound 0.316 µM
  viability, T/C: 60.9%
Second compound 0.00316 µM, first compound 1 µM
  viability, T/C: 75.8%
Second compound 0.01 µM, first compound 0.00316 µM
  viability, T/C: 94.3%
Second compound 0.01 µM, first compound 0.01 µM
  viability, T/C: 89.6%
Second compound 0.01 µM, first compound 0.0316 µM
  viability, T/C: 76.3%
Second compound 0.01 µM, first compound 0.1 µM
  viability, T/C: 79.3%
Second compound 0.01 µM, first compound 0.316 µM
  viability, T/C: 70%
Second compound 0.01 µM, first compound 1 µM
  viability, T/C: 68.3%
[7]
  viability, T/C: 104%
[8]
  viability, T/C: 87.1%
[9]
  viability, T/C: 78.2%
[10]
  viability, T/C: 71.6%
[11]
  viability, T/C: 76.9%
[12]
  viability, T/C: 68.4%
[13]
  viability, T/C: 87.4%
[14]
  viability, T/C: 85.3%
[15]
  viability, T/C: 74%
[16]
  viability, T/C: 65.6%
[17]
  viability, T/C: 73.8%
[18]
  viability, T/C: 67.1%
[19]
  viability, T/C: 92.8%
[20]
  viability, T/C: 95.9%
[21]
  viability, T/C: 75.5%
[22]
  viability, T/C: 74.8%
[23]
  viability, T/C: 72.1%
[24]
  viability, T/C: 67.3%
[25]
  viability, T/C: 97.2%
[26]
  viability, T/C: 82.7%
[27]
  viability, T/C: 80.2%
[28]
  viability, T/C: 76.2%
[29]
  viability, T/C: 72%
[30]
  viability, T/C: 68.9%

## C=CC(=O)Nc1cc(Nc2nccc(-c3cn(C)c4ccccc34)n2)c(OC)cc1N(C)CCN(C)C
Compound 0.01 µM
  viability, T/C: 103% (2×) and 87.1% and 86.9%
Compound 0.0316 µM
  viability, T/C: 98.9% [middle of 4 runs]
Compound 0.1 µM
  viability, T/C: 88.7% [middle of 4 runs]
Compound 0.316 µM
  viability, T/C: 78.6% [middle of 4 runs]
Compound 1 µM
  viability, T/C: 64.3% [middle of 4 runs]
Curve of compound
  IC50: > 1000 nM

## C=CC(=O)N1CCN(c2nc(OCC3CCCN3C)nc3c(F)c(-c4nc(N)cc(C)c4C(F)(F)F)c(Cl)cc23)C(C)C1 (centres undefined) + C#Cc1c(F)ccc2cc(O)cc(-c3ncc4c(N5CC6CCC(C5)N6)nc(OCC56CCCN5CC(F)C6)nc4c3F)c12
[1]
  IC50: > 1000 nM
[2]
  IC50: > 1000 nM
[3]
  IC50: > 1000 nM
[4]
  IC50: > 1000 nM
[5]
  IC50: > 1000 nM
[6]
  IC50: > 1000 nM
[7]
  viability, T/C: 102%
[8]
  viability, T/C: 117%
[9]
  viability, T/C: 110%
[10]
  viability, T/C: 107%
[11]
  viability, T/C: 110%
[12]
  viability, T/C: 111%
[13]
  viability, T/C: 108%
[14]
  viability, T/C: 109%
[15]
  viability, T/C: 105%
[16]
  viability, T/C: 109%
[17]
  viability, T/C: 112%
[18]
  viability, T/C: 102%
[19]
  viability, T/C: 99.4%
[20]
  viability, T/C: 94.5%
[21]
  viability, T/C: 97.4%
[22]
  viability, T/C: 102%
[23]
  viability, T/C: 111%
[24]
  viability, T/C: 96.2%
[25]
  viability, T/C: 95.3%
[26]
  viability, T/C: 93.1%
[27]
  viability, T/C: 75.5%
[28]
  viability, T/C: 89.2%
[29]
  viability, T/C: 107%
[30]
  viability, T/C: 86.5%
[31]
  viability, T/C: 84.4%
[32]
  viability, T/C: 80.9%
[33]
  viability, T/C: 85.3%
[34]
  viability, T/C: 92.1%
[35]
  viability, T/C: 99.6%
[36]
  viability, T/C: 80%
[37]
  viability, T/C: 72.3%
[38]
  viability, T/C: 58.4%
[39]
  viability, T/C: 68.7%
[40]
  viability, T/C: 68.8%
[41]
  viability, T/C: 76.2%
[42]
  viability, T/C: 55.8%
